In patent US20200291018A1, “TAM KINASE INHIBITORS” (SYROS PHARMACEUTICALS, INC., priority 2017, published 2020):

Experiments:
TYRO3 = target: T1, TYRO3 (Homo sapiens, UniProt Q06418); experiment: TR-FRET kinase activity assay, TYRO3; format: biochemical; conditions: ATP at Km, 60 minutes
T1 sequence (Q06418 41-890): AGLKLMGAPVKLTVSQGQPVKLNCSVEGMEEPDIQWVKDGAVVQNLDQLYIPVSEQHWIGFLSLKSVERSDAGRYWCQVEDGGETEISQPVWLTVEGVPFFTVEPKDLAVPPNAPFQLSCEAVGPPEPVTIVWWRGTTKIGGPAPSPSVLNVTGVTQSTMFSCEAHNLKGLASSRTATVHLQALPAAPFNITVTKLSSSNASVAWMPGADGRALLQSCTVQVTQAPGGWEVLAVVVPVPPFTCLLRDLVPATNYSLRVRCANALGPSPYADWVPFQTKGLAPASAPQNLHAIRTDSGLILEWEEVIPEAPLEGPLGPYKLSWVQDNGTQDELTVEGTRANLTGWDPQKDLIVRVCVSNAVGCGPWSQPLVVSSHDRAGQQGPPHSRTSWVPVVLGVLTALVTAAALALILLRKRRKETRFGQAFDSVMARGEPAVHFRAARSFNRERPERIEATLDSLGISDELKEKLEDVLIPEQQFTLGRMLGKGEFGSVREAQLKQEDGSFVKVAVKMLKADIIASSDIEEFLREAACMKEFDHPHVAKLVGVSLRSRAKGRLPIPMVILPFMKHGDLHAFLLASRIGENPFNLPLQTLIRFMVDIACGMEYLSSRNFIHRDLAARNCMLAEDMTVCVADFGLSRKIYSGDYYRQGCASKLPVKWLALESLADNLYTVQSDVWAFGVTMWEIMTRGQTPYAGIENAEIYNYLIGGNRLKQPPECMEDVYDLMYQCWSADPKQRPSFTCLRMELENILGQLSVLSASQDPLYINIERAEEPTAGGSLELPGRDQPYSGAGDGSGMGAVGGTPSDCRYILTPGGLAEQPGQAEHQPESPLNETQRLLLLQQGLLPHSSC
Outline: (§1)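 IC50 came from TR-FRET signal after 30 min dark development with a Europium-labeled phospho-specific antibody. This followed a 60 min RT reaction, stopped with EDTA, started with ATP at Km per enzyme. Peptide substrate, enzyme and compound were premixed in HEPES pH 7.5 buffer with MgCl2, EGTA, Brij 35 and DTT.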

MERTK = target: T2, MERTK (Homo sapiens, UniProt Q12866); experiment: TR-FRET kinase activity assay, MERTK; format: biochemical; conditions: for IC50: TR-FRET activity assay, ATP at Km, 60 minutes, read-out: Mer IC50; for Mer/Flt3 ratio (FLT3 IC50/Mer IC50): ratio calculated as FLT3 IC50/Mer IC50
T2 sequence (Q12866 21-999): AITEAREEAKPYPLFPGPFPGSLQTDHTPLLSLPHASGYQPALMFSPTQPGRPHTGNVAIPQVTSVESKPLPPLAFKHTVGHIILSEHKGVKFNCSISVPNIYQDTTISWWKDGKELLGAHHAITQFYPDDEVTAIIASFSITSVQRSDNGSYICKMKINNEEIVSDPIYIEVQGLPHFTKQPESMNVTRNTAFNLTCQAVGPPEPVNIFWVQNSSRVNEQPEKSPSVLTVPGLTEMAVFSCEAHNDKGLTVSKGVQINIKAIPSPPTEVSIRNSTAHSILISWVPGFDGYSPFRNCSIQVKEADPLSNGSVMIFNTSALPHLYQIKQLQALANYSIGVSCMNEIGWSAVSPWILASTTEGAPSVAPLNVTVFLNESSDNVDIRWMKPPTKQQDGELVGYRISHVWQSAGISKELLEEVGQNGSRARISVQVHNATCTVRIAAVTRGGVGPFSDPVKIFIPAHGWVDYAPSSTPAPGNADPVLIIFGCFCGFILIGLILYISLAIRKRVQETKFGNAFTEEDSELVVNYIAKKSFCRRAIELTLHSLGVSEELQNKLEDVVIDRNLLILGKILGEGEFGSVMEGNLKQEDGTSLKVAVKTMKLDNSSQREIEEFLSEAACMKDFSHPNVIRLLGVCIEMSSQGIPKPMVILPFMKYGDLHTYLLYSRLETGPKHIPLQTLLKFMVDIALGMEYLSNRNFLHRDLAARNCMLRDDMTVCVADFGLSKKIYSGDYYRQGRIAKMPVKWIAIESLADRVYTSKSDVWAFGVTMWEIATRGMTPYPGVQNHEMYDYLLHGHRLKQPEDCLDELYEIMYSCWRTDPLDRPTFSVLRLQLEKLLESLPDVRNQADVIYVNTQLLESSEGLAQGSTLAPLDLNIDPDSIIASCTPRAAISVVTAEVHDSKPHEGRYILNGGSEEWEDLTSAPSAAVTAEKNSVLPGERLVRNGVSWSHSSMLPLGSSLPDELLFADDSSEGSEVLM
Outline: as §1

IC50 (TYRO3) [nM] | IC50 (MERTK) [nM] | Mer/Flt3 ratio (FLT3 IC50/Mer IC50) (MERTK) | SMILES
≤ 100 | ≤ 100 | +++ (a ratio of >100) | COCCN1C(C)(C)CC(Oc2ncc([C@H]3CC[C@H](O)CC3)c3nc(N[C@@H](C)CC#N)ncc23)CC1(C)C [Compound 376]
100 to 1000 | ≤ 100 | +++ (a ratio of >100) | COCC(=O)N1C(C)(C)CC(Oc2ncc([C@H]3CC[C@H](O)CC3)c3nc(N[C@@H](C)CC(F)(F)F)ncc23)CC1(C)C [Compound 377]
≤ 100 | ≤ 100 | +++ (a ratio of >100) | C[C@@H](CC(F)(F)F)Nc1ncc2c(OC3CCN([C@@H]4CCOC4)CC3)ncc([C@H]3CC[C@H](O)CC3)c2n1 [Compound 378]
≤ 100 | ≤ 100 | +++ (a ratio of >100) | COCCN1C(C)(C)CC(Oc2ncc([C@H]3CC[C@H](O)CC3)c3nc(NC4(C)CC4)ncc23)CC1(C)C [Compound 379]
≤ 100 | ≤ 100 | +++ (a ratio of >100) | COCCN1C(C)(C)CC(Oc2ncc([C@H]3CC[C@H](O)CC3)c3nc(N[C@@H](C)CCO)ncc23)CC1(C)C [Compound 380]
≤ 100 | ≤ 100 | +++ (a ratio of >100) | COCCN1C(C)(C)CC(Oc2ncc([C@H]3CC[C@H](O)CC3)c3nc(N[C@@H](C)CF)ncc23)CC1(C)C [Compound 381]
≤ 100 | ≤ 100 | +++ (a ratio of >100) | C[C@@H](CF)Nc1ncc2c(OC3CC(C)(C)N(C)C(C)(C)C3)ncc([C@H]3CC[C@H](O)CC3)c2n1 [Compound 382]
≤ 100 | ≤ 100 | +++ (a ratio of >100) | C[C@@H](CC(F)(F)F)Nc1ncc2c(OC3CCN([C@H]4CCOC4)CC3)ncc([C@H]3CC[C@H](O)CC3)c2n1 [Compound 383]
≤ 100 | ≤ 100 | +++ (a ratio of >100) | COC[C@H](C)Nc1ncc2c(O[C@H]3CCN(C)C(C)(C)C3)ncc([C@H]3CC[C@H](O)CC3)c2n1 [Compound 384]
≤ 100 | ≤ 100 | +++ (a ratio of >100) | COC[C@H](C)Nc1ncc2c(O[C@@H]3CCN(C)C(C)(C)C3)ncc([C@H]3CC[C@H](O)CC3)c2n1 [Compound 385]
≤ 100 | ≤ 100 | +++ (a ratio of >100) | C[C@@H](CC(F)(F)F)Nc1ncc2c(OC3CC(C)(C)N(C)C(C)(C)C3)ncc([C@H]3CC[C@H](O)CC3)c2n1 [Compound 386]
≤ 100 | ≤ 100 | +++ (a ratio of >100) | COC[C@H](C)Nc1ncc2c(OC3C[C@H](C)N(C)[C@@H](C)C3)ncc([C@H]3CC[C@H](O)CC3)c2n1 (stereo partly drawn) [Compound 387]
≤ 100 | ≤ 100 | +++ (a ratio of >100) | COC[C@H](C)Nc1ncc2c(OC3C[C@@H](C)N(C)[C@H](C)C3)ncc([C@H]3CC[C@H](O)CC3)c2n1 (stereo partly drawn) [Compound 388]
100 to 1000 | ≤ 100 | +++ (a ratio of >100) | C[C@@H](CC(F)(F)F)Nc1ncc2c(OC3CCN(S(C)(=O)=O)CC3)ncc([C@H]3CC[C@H](O)CC3)c2n1 [Compound 389]
100 to 1000 | ≤ 100 | ++ (a ratio of between 10 and 100) | COCCN1C(C)(C)CC(Oc2ncc([C@H]3CC[C@H](O)CC3)c3nc(N[C@@H]4CCOC4)ncc23)CC1(C)C [Compound 390]
≤ 100 | ≤ 100 | +++ (a ratio of >100) | CCN1C(C)(C)CC(Oc2ncc([C@H]3CC[C@H](O)CC3)c3nc(N[C@@H](C)CC(F)(F)F)ncc23)CC1(C)C [Compound 391]
≤ 100 | ≤ 100 | +++ (a ratio of >100) | O[C@H]1CC[C@H](c2cnc(OC3CCOCC3)c3cnc(Nc4ccc(-c5nn[nH]n5)cc4)nc32)CC1 [Compound 392]
≤ 100 | ≤ 100 | +++ (a ratio of >100) | COC[C@H](C)Nc1ncc2c(O[C@H]3C[C@@H](C(=O)N4CCN(C)CC4)C3)ncc([C@H]3CC[C@H](O)CC3)c2n1 [Compound 393]
100 to 1000 | ≤ 100 | +++ (a ratio of >100) | C[C@@H](Nc1ncc2c(OC3CCOCC3)ncc([C@H]3CC[C@H](O)CC3)c2n1)C(F)F [Compound 394]
1000 to 10000 | 100 to 1000 | ++ (a ratio of between 10 and 100) | COC[C@H](C)Nc1ncc2c(OC3CCOCC3)ncc(-c3ccc(F)cc3)c2n1 [Compound 395]
100 to 1000 | ≤ 100 | +++ (a ratio of >100) | COC[C@H](C)Nc1ncc2c(OC3CCOCC3)ncc(-c3ccc(C#N)cc3)c2n1 [Compound 396]
≤ 100 | ≤ 100 | ++ (a ratio of between 10 and 100) | O=C(O)c1ccc(Nc2ncc3c(OC4CCOCC4)ncc([C@H]4CC[C@H](O)CC4)c3n2)cc1 [Compound 397]
≤ 100 | ≤ 100 | + (a ratio of >2.0 and <10) | CNC(=O)c1ccc(Nc2ncc3c(OC4CCOCC4)ncc([C@H]4CC[C@H](O)CC4)c3n2)cc1 [Compound 398]
≤ 100 | ≤ 100 | NS (a ratio of ≤2.0) | NC(=O)c1ccc(Nc2ncc3c(OC4CCOCC4)ncc([C@H]4CC[C@H](O)CC4)c3n2)cc1 [Compound 399]
100 to 1000 | 100 to 1000 | ++ (a ratio of between 10 and 100) | COC[C@H](C)Nc1ncc2c(OC3CCOCC3)ncc(-c3ccc(S(C)(=O)=O)cc3)c2n1 [Compound 400]
